# Reference: PubChem BioAssay AID330 (DTP/NCI, 2004)
# Values joined by “and” are separate entries in the source; they are usually repeats but may differ in a detail not shown here. Identical values can stand only once. Inconclusive results and toxic doses are left out.
# System: P388 leukemia ip, CD2F1 mice, survival T/C
# Test: NCI In Vivo Anticancer Drug Screen. Data for tumor model P388 Leukemia (intraperitoneal) in CD2F1 (CDF1) mice
# Details: endpoint: median survival time, higher = longer survival
# Procedure, shortened: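 Mice carrying the transplanted tumor received test compound or vehicle. Survival was recorded in each group, and the value is the treated-group measurement divided by that of the vehicle-treated control group.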
# [1] = dose: 60.0 mg/kg/injection, schedule: Q01DX005 (ip), vehicle: Klucel (hydroxypropylcellulose) (HPC)
# [2] = dose: 120.0 mg/kg/injection, schedule: Q01DX005 (ip), vehicle: Klucel (hydroxypropylcellulose) (HPC)
# [3] = dose: 240.0 mg/kg/injection, schedule: Q01DX005 (ip), vehicle: Klucel (hydroxypropylcellulose) (HPC)
# [4] = dose: 50.0 mg/kg/injection, schedule: Q01DX005 (ip), vehicle: saline with Tween-80
# [5] = dose: 100.0 mg/kg/injection, schedule: Q01DX005 (ip), vehicle: saline with Tween-80
# [6] = dose: 200.0 mg/kg/injection, schedule: Q01DX005 (ip), vehicle: saline with Tween-80
smiles,measurement,setting,value
CC(C)Cn1c(Cl)c(C=O)c2ccccc21,T/C,"dose: 100.0 mg/kg/injection, schedule: Q04DX002 (ip), vehicle: Klucel (hydroxypropylcellulose) (HPC)",101 % of control
same,T/C,"dose: 200.0 mg/kg/injection, schedule: Q04DX002 (ip), vehicle: Klucel (hydroxypropylcellulose) (HPC)",97 % of control
same,T/C,"dose: 400.0 mg/kg/injection, schedule: Q04DX002 (ip), vehicle: Klucel (hydroxypropylcellulose) (HPC)",90 % of control
COc1ccc2nccc3c2c1NC(Cl)=C3,T/C,[1],97 % of control
same,T/C,[2],103 % of control
same,T/C,[3],97 % of control
O=c1c2ccccc2oc2nc3ccc(Cl)cc3n12,T/C,[4],112 % of control
same,T/C,[5],101 % of control
same,T/C,[6],98 % of control
C/C(=N\NC(=S)N1CCCCC1C)c1nccs1 (stereo not drawn),T/C,"dose: 12.5 mg/kg/injection, schedule: Q01DX005 (ip), vehicle: saline with Tween-80",100 % of control and 108 % of control
same,T/C,"dose: 25.0 mg/kg/injection, schedule: Q01DX005 (ip), vehicle: saline with Tween-80",104 % of control and 111 % of control
same,T/C,[4],112 % of control and 118 % of control
O=c1[nH]cc([N+](=O)[O-])cc1Cl,T/C,[4],104 % of control
same,T/C,[5],95 % of control
Cc1c2ccncc2c(CN(CCO)CCO)c2c3ccccc3n(C)c12,T/C,"dose: 5.0 mg/kg/injection, schedule: Q01DX005 (ip), vehicle: saline",103 % of control
same,T/C,"dose: 10.0 mg/kg/injection, schedule: Q01DX005 (ip), vehicle: saline",100 % of control
same,T/C,"dose: 20.0 mg/kg/injection, schedule: Q01DX005 (ip), vehicle: saline",90 % of control
Cn1c2c(c(=O)n(C)c1=O)N1c3c(n(C)c(=O)n(C)c3=O)NN1C(c1ccccc1)=N2,T/C,"dose: 100.0 mg/kg/injection, schedule: Q01DX001 (ip), vehicle: saline with Tween-80",95 % of control
same,T/C,"dose: 200.0 mg/kg/injection, schedule: Q01DX001 (ip), vehicle: saline with Tween-80",88 % of control
same,T/C,"dose: 400.0 mg/kg/injection, schedule: Q01DX001 (ip), vehicle: saline with Tween-80",89 % of control
O=C(N/N=C/c1ccc(O)c(O)c1)c1ccccc1,T/C,[4],109 % of control
same,T/C,[5],118 % of control
same,T/C,[6],119 % of control
C#CC1OC12CCC1C3CC=C4CC(O)CCC4(C)C3CCC12 (stereo not drawn),T/C,"dose: 50.0 mg/kg/injection, schedule: Q01DX009 (ip), vehicle: suspension in saline",93 % of control
same,T/C,"dose: 100.0 mg/kg/injection, schedule: Q01DX009 (ip), vehicle: suspension in saline",94 % of control
same,T/C,"dose: 200.0 mg/kg/injection, schedule: Q01DX009 (ip), vehicle: suspension in saline",87 % of control
O=C1CCC(=O)N1CN(Cc1ccccc1)Cc1ccccc1,T/C,[1],100 % of control
same,T/C,[2],97 % of control
same,T/C,[3],103 % of control
COc1ccc2c(c1)c(OC)c(CC(O)C(C)(C)O)c(=O)n2C (stereo not drawn),T/C,"dose: 110.0 mg/kg/injection, schedule: Q01DX001 (ip), vehicle: Klucel (hydroxypropylcellulose) (HPC)",96 % of control
same,T/C,"dose: 220.0 mg/kg/injection, schedule: Q01DX001 (ip), vehicle: Klucel (hydroxypropylcellulose) (HPC)",106 % of control
same,T/C,"dose: 440.0 mg/kg/injection, schedule: Q01DX001 (ip), vehicle: Klucel (hydroxypropylcellulose) (HPC)",110 % of control
COC(=O)c1c(-c2cc(OC)c(OC)cc2[N+](=O)[O-])cn(C)c1C,T/C,[4],88 % of control
same,T/C,[5],86 % of control
CC(=O)Cc1cc(-c2cc(CC(C)=O)[nH]n2)n[nH]1,T/C,"dose: 60.0 mg/kg/injection, schedule: Q01DX005 (ip), vehicle: saline",98 % of control
same,T/C,"dose: 120.0 mg/kg/injection, schedule: Q01DX005 (ip), vehicle: saline",95 % of control
same,T/C,"dose: 240.0 mg/kg/injection, schedule: Q01DX005 (ip), vehicle: saline",102 % of control
O=S(=O)(O)c1ccc2cc3nn(-c4ccc(/C=C/c5ccc(-n6nc7cc8ccc(S(=O)(=O)O)cc8cc7n6)cc5S(=O)(=O)O)c(S(=O)(=O)O)c4)nc3cc2c1,T/C,"dose: 50.0 mg/kg/injection, schedule: Q01DX009 (ip), vehicle: saline",97 % of control
same,T/C,"dose: 100.0 mg/kg/injection, schedule: Q01DX009 (ip), vehicle: saline",97 % of control
C[CH2][Ge]([CH2]C)[CH2]/C(C)=C(/C)[CH2][Ge]([CH2]C)[CH2]C,T/C,"dose: 50.0 mg/kg/injection, schedule: Q01DX009 (ip), vehicle: saline with Tween-80",100 % of control
same,T/C,"dose: 100.0 mg/kg/injection, schedule: Q01DX009 (ip), vehicle: saline with Tween-80",108 % of control
CC(C)(C)C(=O)CC(=O)C(F)(F)C(F)(F)C(F)(F)F.CC(C)(C)C(=O)CC(=O)C(F)(F)C(F)(F)C(F)(F)F.CC(C)(C)C(=O)CC(=O)C(F)(F)C(F)(F)C(F)(F)F.[Ho],T/C,"dose: 120.0 mg/kg/injection, schedule: Q01DX005 (ip), vehicle: saline with Tween-80",111 % of control
same,T/C,"dose: 240.0 mg/kg/injection, schedule: Q01DX005 (ip), vehicle: saline with Tween-80",110 % of control
